Measured values taken from PMC9889419 (Pharmacological Reports, 2022).
Counter-ions that a name gives are not always drawn.

How the values were obtained:
rats [1] = type: in vivo; conditions: ip
MTLE mice = MTLE mice acute screen evaluation; type: in vivo
NIE-115 cells = experiment: Patch-clamp (sodium currents); type: cell-based; conditions: 100 µM
mice [2] = experiment: Picrotoxin-induced seizures; type: in vivo; conditions: ip
[3] = system: CYP1A2 (aryl hydrocarbon receptor); experiment: In vitro metabolic gene induction studies; type: cell-based, human
Protocol: Anticonvulsant Screening prog ram
Test 28 - In Vitro Metabolic Gene Induction Studies
SolventCode: DMSO Solvent Prep: Unit: uM
(§1) Cell line source: Puracyp Molecular 257.7590
DateStarted: O5+eb-2O1O Date Completed: 15+eb-2010 Weig ht:
Reference: Lamb boolc#t! p9.77
lsoform Code: CyplAz Cell line: lAzDRE
Inducffon mechanism: aryl hydrocarbon receptor
Concentration Induction Cell
Fold +/- S.D Viability +/- S.D
0 1 +t- o.cs n 1n +L 2.2o n
(§2) Max induction 2 fold @ 200uM
. '^ (calculated): slgnificant decrease in viability at this concentation in vitso.
(§3) (1 picture or pasted object on this page, not shown here)

rats [4] = conditions: ip, […]
Protocol: The assays were carried out within the Epilepsy Therapy Screening Program (ETSP, previously known as the Anticonvulsant Screening Program, ASP), Epilepsy Branch, National Institute of Neurological and Communicative Disorders and Stroke, National Institutes of Health in Rockville, MD, USA [23].

SKCa channel = experiment: Radioligand binding; parameters: species or system rat; conditions: 100 μM
Protocol: (§4) Radioligand binding. Radioligand binding assays were performed at Eurofins CEREP (France). The results are expressed as a percent of control specific binding (measured specific binding*100/control specific binding) and as a percent inhibition of control specific binding (100-(measured specific binding*100)/control specific binding) obtained in the presence of the test compounds. The IC50 values (concentration causing a half-maximal inhibition of control specific binding) and Hill coefficients (nH) were determined by non-linear regression analysis of the competition curves generated with mean replicate values using Hill equation curve fitting (Y = D + [A-D]/[1 + (C/C50)^nH], where Y = specific binding, A = left asymptote of the curve, D = right asymptote of the curve, C = compound concentration, C50 = IC50, and nH = slope factor). This analysis was performed using software developed at Cerep (Hill software) and validated by comparison with data generated by the commercial software SigmaPlot® 4.0 for Windows® (© 1997 by SPSS Inc.). The inhibition constants (Ki) were calculated using the Cheng Prusoff equation (Ki = IC50/[1 + L/KD], where L = concentration of radioligand in the assay, and KD = affinity of the radioligand for the receptor). A scatchard plot is used to determine the Kd.

KV channel = experiment: Radioligand binding; parameters: species or system rat; conditions: 100 μM
Protocol: as §4

P2Y = experiment: Radioligand binding; parameters: species or system rat; conditions: 100 μM
Protocol: as §4

BB (non-selective) = experiment: Radioligand binding; parameters: species or system rat; conditions: 100 μM
Protocol: as §4

Cl- channel (GABA-gated) = experiment: Radioligand binding; parameters: species or system rat; conditions: 100 μM
Protocol: as §4

PCP = experiment: Radioligand binding; parameters: species or system rat; conditions: 100 μM
Protocol: as §4

GABA (non-selective) = experiment: Radioligand binding; parameters: species or system rat; conditions: 100 μM
Protocol: as §4

P2X = experiment: Radioligand binding; parameters: species or system rat; conditions: 100 μM
Protocol: as §4

[5] = system: CYP3A1 (pregnane X receptor); experiment: In vitro metabolic gene induction studies; type: cell-based, rat
Protocol: Test 28 - In Vitro Metabolic Gene lnduction Studies
:.!,iIir:- i- :: ar!-'{}-: i
Solvent Code: DMSO Solvent Prep: Unit: uM
as §1
Date Staded: 05+eb-20'10 Date Completed: 15-Feb-2010 Weight:
Reference: Lamb bool#8 pg. 77 […]
lsoform Code: CYP3A1 Cell line: RPXR lnduc60n mechanism:pregnane X receptor
Concentration lnduction Cell […]
Note: Box checked if data is significantty different.
as §2
(calculated): signlficant decrease in vlabllity at this conc€nbaffon in vitro.
as §3

mice [6] = experiment: Writhing test; type: in vivo; conditions: 30 mg/kg
Protocol: Inflammatory acute pain—writhing test. In this test, mice were placed individually into glass beakers and were allowed to habituate for the next 30 min. Then, each mouse was injected with tested compound, dissolved in saline (at a dose 30 mg/kg) or vehicle, and then placed back into the glass beaker for 30 min. To induce inflammatory pain, 0.9% acetic acid solution (Polskie Odczynniki Chemiczne, Poland) prepared in saline was injected by the intraperitoneal route. Mice were placed in the beakers again and were observed continuously for the next 30 min. Stereotypical writhes (lengthwise constrictions of the torso with a concomitant concave arching of the back) were counted over this period in drug-treated and control mice.

hNav1.7 sodium channel = target: T1, hNav1.7 sodium channel (Homo sapiens, UniProt Q15858); experiment: Nav channel electrophysiology (IonWorks Quattro); type: cell-based
T1 construct: host or cells: CHO cells
T1 sequence (Q15858 whole entry): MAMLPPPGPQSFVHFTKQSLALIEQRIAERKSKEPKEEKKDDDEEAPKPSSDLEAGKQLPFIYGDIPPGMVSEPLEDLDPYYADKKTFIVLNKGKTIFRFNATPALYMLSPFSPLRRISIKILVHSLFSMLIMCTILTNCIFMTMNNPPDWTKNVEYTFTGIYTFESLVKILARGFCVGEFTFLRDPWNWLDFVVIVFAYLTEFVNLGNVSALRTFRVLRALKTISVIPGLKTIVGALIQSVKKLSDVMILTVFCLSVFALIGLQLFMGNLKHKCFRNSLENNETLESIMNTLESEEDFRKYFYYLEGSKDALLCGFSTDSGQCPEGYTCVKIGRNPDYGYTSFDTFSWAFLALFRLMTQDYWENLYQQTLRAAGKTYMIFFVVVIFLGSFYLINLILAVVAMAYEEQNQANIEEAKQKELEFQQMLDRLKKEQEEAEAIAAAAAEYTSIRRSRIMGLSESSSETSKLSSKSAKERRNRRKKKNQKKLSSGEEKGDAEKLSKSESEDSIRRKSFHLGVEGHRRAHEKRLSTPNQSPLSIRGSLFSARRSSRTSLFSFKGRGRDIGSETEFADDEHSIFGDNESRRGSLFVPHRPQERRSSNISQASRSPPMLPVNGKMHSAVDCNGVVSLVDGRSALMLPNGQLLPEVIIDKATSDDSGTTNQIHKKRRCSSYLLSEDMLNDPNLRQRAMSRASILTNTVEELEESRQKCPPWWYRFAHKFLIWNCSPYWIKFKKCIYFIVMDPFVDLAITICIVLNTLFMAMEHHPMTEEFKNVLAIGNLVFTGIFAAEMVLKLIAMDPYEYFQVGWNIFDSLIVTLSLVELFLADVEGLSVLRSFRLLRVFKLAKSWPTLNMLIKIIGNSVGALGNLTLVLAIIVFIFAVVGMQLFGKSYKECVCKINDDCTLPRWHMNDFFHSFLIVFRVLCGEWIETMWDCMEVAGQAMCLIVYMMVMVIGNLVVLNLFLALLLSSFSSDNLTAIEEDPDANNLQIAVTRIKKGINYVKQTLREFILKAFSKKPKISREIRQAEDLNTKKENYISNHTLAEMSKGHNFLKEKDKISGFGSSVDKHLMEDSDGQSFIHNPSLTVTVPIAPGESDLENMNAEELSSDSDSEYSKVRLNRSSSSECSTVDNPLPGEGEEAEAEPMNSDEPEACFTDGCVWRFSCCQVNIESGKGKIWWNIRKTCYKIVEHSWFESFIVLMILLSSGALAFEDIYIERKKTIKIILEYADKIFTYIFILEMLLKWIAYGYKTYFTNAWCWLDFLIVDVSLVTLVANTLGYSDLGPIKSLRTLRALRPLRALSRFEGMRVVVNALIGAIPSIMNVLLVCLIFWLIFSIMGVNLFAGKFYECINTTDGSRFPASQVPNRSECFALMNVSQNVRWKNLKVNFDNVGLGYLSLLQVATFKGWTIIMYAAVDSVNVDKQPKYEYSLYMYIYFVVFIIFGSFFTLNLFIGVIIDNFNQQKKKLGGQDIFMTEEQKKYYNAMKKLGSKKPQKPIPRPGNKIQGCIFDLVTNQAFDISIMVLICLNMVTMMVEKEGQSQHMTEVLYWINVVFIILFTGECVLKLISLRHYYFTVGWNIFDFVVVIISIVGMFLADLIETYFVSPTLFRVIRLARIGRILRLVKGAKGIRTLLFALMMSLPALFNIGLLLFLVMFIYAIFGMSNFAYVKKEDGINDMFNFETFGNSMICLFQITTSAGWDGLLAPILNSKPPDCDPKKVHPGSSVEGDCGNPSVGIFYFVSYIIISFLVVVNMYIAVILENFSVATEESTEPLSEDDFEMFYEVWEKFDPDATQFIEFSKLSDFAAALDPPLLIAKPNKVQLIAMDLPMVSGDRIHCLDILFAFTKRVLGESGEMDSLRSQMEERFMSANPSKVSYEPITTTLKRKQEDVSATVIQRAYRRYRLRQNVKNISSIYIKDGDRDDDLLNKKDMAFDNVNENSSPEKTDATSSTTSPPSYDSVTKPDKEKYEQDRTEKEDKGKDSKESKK

SMILES: CCC(CO)NCCOc1c(C)cccc1Cl (stereo not drawn) [Compound 4, R,S-2-((2-(2-chloro-6-methylphenoxy)ethyl)amino)butan-1-ol]
- TD97 (rats [1]): 40.53 mg/kg
- Pilocarpine-induced status epilepticus prevention: result (rats [1]; at 40 mg/kg): no activity
- MTLE mice acute screen: % of baseline (MTLE mice; at 30 mg/kg, recording period 5–25 min): 80.8 ± 16.8 % of baseline
- MTLE mice acute screen TPE (MTLE mice; mice, ip): 0.25 h
- % of control +/- SEM (NIE-115 cells; holding potential -60 mV): 26 +/- 3%
- % of control +/- SEM (NIE-115 cells; holding potential -90 mV): 55 +/- 5%
- Picrotoxin-induced seizures ED50 (mice [2]): > 70 mg/kg
- EC50 ([3]; 1A2DRE cell line, read-out: EC50 (calculated)): 37 µM
- Max induction (calculated) ([3]; @ 200uM): 2 fold
- LTG-resistant amygdala seizures: active at (rats [4]): 15 mg/kg
- % of control specific binding (SKCa channel): 90.5%
- % of control specific binding (KV channel): 104.2%
- % of control specific binding (P2Y): 102.2%
- % of control specific binding (BB (non-selective)): 104.6%
- % of control specific binding (Cl- channel (GABA-gated)): 99.6%
- % of control specific binding (PCP): 72.6%
- % of control specific binding (GABA (non-selective)): 109.3%
- % of control specific binding (P2X): 100.6%
- Max induction (calculated) ([5]; @ 200uM): 2 fold
- EC50 ([5]; RPXR cell line, read-out: EC50 (calculated)): 74 µM

SMILES: CCC(CO)NCCOc1c(C)cccc1Cl (stereo not drawn) [KM-408, R,S-2-((2-(2-chloro-6-methylphenoxy)ethyl)amino)butan-1-ol hydrochloride]
- effect on acetic acid-induced writhing (mice [6]): not significantly effective
- IC50 (hNav1.7 sodium channel; 10 Hz): 15.4 µM
- IC50 (hNav1.7 sodium channel; Inactivated state): < 10 µM
- IC50 (hNav1.7 sodium channel; Tonic block): 52 µM
